Reference: ChEMBL document CHEMBL5053490, “Fusaricide is a Novel Iron Chelator that Induces Apoptosis through Activating Caspase-3” (J Nat Prod, 2021)
The source made the active and inactive calls. No cut-off for these calls is given here.

Key:
[1] = tested on: NCI-H460; test: Induction of apoptosis in human NCI-H460 cells assessed as increase in Caspase 3 activity at 10 uM measured by Western blot analysis; format: functional, cell-based; conditions: time <= 48.0 hrs, TDE = time-dependent effect
[2] = tested on: NCI-H460; test: Downregulation of FTH level in human NCI-H460 cells at 10 uM by Western blot analysis; format: functional, cell-based
[3] = tested on: NCI-H460; test: Induction of apoptosis in human NCI-H460 cells assessed as late apoptotic cells at 10 uM incubated for 24 hrs by AnnexinV-FITC/propidium iodide staining based flow cytometry (reference value: 7.54%); format: functional
[4] = tested on: NCI-H460; test: Cytotoxicity against human NCI-H460 cells assessed as cell viability rescue at 10 uM incubated for 24 hrs in presence of Fecl3 by CCK8 assay; format: functional, cell-based
[5] = tested on: NCI-H460; test: Cytotoxicity against human NCI-H460 cells assessed as reduction in cell viability incubated for 24 hrs by CCK8 assay; format: functional, cell-based; conditions: NCI-H460, 24 h
[6] = tested on: NCI-H460; test: Induction of morphological changes in human NCI-H460 cells assessed as chromatin condensation at 10 uM measured after 24 hrs by Hoechst 33342 staining based assay; format: functional, cell-based
[7] = tested on: NCI-H460; test: Induction of cell cycle arrest in human NCI-H460 cells assessed as increase in p-53 expression at 10 uM after 24 hrs by Western blot analysis; format: functional, cell-based
[8] = tested on: NCI-H460; test: Induction of apoptosis in human NCI-H460 cells assessed as late apoptotic cells at 10 uM incubated for 24 hrs in presence of FeCl3 by AnnexinV-FITC/propidium iodide staining based flow cytometry (reference value: 6.09%); format: functional
[9] = tested on: NCI-H460; test: Cytotoxicity against human NCI-H460 cells assessed as reduction in cell viability at 5 uM incubated for 48 hrs by CCK8 assay; format: functional, cell-based
[10] = tested on: NCI-H460; test: Induction of cell cycle arrest in human NCI-H460 cells assessed as accumulation at sub G2/M phase at 10 uM after 24 hrs by flow cytometric analysis (reference value: 9.8%); format: functional
[11] = tested on: NCI-H460; test: Induction of apoptosis in human NCI-H460 cells assessed as viable cells at 10 uM incubated for 24 hrs in presence of FeCl3 by AnnexinV-FITC/propidium iodide staining based flow cytometry (reference value: 89.5%); format: functional; conditions: read-out: Activity
[12] = tested on: NCI-H460; test: Reversal of cell death in human NCI-H460 cells at up to 40 uM measured after 24 hrs by in presence of FeCl3; format: functional, cell-based
[13] = tested on: NCI-H460; test: Induction of apoptosis in human NCI-H460 cells assessed as necrotic cells at 10 uM incubated for 36 hrs by AnnexinV-FITC/propidium iodide staining based flow cytometry (reference value: 1.28%); format: functional
[14] = tested on: NCI-H460; test: Induction of apoptosis in human NCI-H460 cells assessed as necrotic cells at 10 uM incubated for 24 hrs by AnnexinV-FITC/propidium iodide staining based flow cytometry (reference value: 1.28%); format: functional
[15] = tested on: NCI-H460; test: Induction of apoptosis in human NCI-H460 cells assessed as necrotic cells at 10 uM incubated for 12 hrs by AnnexinV-FITC/propidium iodide staining based flow cytometry (reference value: 1.28%); format: functional
[16] = tested on: NCI-H460; test: Effect on labile iron pool in human NCI-H460 cells assessed as […] at 10 uM by calcein-AM staining based flow cytometry analysis relative to control; format: functional, cell-based
[17] = tested on: HEK-293T; test: Cytotoxicity against human HEK293T cells up to 100 uM assessed as reduction in cell viability incubated for 48 hrs by CCK8 assay; format: cell-based
[18] = tested on: NCI-H460; test: Induction of apoptosis in human NCI-H460 cells assessed as late apoptotic cells at 10 uM incubated for 12 hrs by AnnexinV-FITC/propidium iodide staining based flow cytometry (reference value: 7.54%); format: functional
[19] = tested on: NCI-H460; test: Induction of cell cycle arrest in human NCI-H460 cells assessed as accumulation at sub S phase at 10 uM after 12 hrs by flow cytometric analysis (reference value: 25.7%); format: functional
[20] = tested on: NCI-H460; test: Induction of apoptosis in human NCI-H460 cells assessed as early apoptotic cells at 10 uM incubated for 36 hrs by AnnexinV-FITC/propidium iodide staining based flow cytometry (reference value: 0.74%); format: functional
[21] = tested on: NCI-H460; test: Induction of cell cycle arrest in human NCI-H460 cells assessed as decrease in cyclin D1 expression at 10 uM after 24 hrs by Western blot analysis; format: functional, cell-based
[22] = tested on: NCI-H460; test: Induction of apoptosis in human NCI-H460 cells assessed as viable cells at 10 uM incubated for 48 hrs by AnnexinV-FITC/propidium iodide staining based flow cytometry (reference value: 90.4%); format: functional; conditions: read-out: Activity
[23] = tested on: NCI-H460; test: Induction of cell cycle arrest in human NCI-H460 cells assessed as accumulation at sub G2/M phase at 10 uM after 12 hrs by flow cytometric analysis (reference value: 9.8%); format: functional
[24] = tested on: NCI-H460; test: Induction of apoptosis in human NCI-H460 cells assessed as necrotic cells at 10 uM incubated for 48 hrs by AnnexinV-FITC/propidium iodide staining based flow cytometry (reference value: 1.28%); format: functional
[25] = tested on: NCI-H460; test: Induction of apoptosis in human NCI-H460 cells assessed as necrotic cells at 10 uM incubated for 24 hrs in presence of FeCl3 by AnnexinV-FITC/propidium iodide staining based flow cytometry (reference value: 2.4%); format: functional
[26] = tested on: NCI-H460; test: Induction of apoptosis in human NCI-H460 cells assessed as early apoptotic cells at 10 uM incubated for 24 hrs by AnnexinV-FITC/propidium iodide staining based flow cytometry (reference value: 0.74%); format: functional
[27] = tested on: NCI-H460; test: Induction of apoptosis in human NCI-H460 cells assessed as early apoptotic cells at 10 uM incubated for 12 hrs by AnnexinV-FITC/propidium iodide staining based flow cytometry (reference value: 0.74%); format: functional
[28] = tested on: NCI-H460; test: Induction of apoptosis in human NCI-H460 cells assessed as late apoptotic cells at 10 uM incubated for 36 hrs by AnnexinV-FITC/propidium iodide staining based flow cytometry (reference value: 7.54%); format: functional
[29] = tested on: NCI-H226; test: Reversal of cell death in human NCI-H226 cells at up to 40 uM measured after 24 hrs by in presence of FeCl3; format: functional, cell-based
[30] = tested on: NCI-H460; test: Induction of apoptosis in human NCI-H460 cells assessed as decrease in PARP measured upto 48 hrs by Western blot analysis; format: functional, cell-based; conditions: TDE = time-dependent effect
[31] = tested on: NCI-H460; test: Induction of apoptosis in human NCI-H460 cells assessed as viable cells at 10 uM incubated for 12 hrs by AnnexinV-FITC/propidium iodide staining based flow cytometry (reference value: 90.4%); format: functional; conditions: read-out: Activity
[32] = tested on: NCI-H460; test: Induction of morphological changes in human NCI-H460 cells assessed as roughness of cell membrane at 10 uM measured after 24 hrs by Hoechst 33342 staining based assay; format: functional
[33] = tested on: NCI-H460; test: Induction of apoptosis in human NCI-H460 cells assessed as increase in Bax at 10 uM measured by Western blot analysis; format: functional, cell-based
[34] = tested on: NCI-H1299; test: Cytotoxicity against human NCI-H1299 cells assessed as cell viability rescue at 10 uM incubated for 24 hrs in presence of Fecl3 by CCK8 assay; format: functional, cell-based
[35] = tested on: NCI-H460; test: Induction of apoptosis in human NCI-H460 cells assessed as early apoptotic cells at 10 uM incubated for 24 hrs in presence of FeCl3 by AnnexinV-FITC/propidium iodide staining based flow cytometry (reference value: 1.69%); format: functional
[36] = tested on: MRC5; test: Cytotoxicity against human MRC5 cells up to 100 uM assessed as reduction in cell viability incubated for 48 hrs by CCK8 assay; format: cell-based; conditions: mrc5, 48 h
[37] = tested on: NCI-H460; test: Cytotoxicity against human NCI-H460 cells assessed as reduction in cell viability incubated for 48 hrs by CCK8 assay; format: functional, cell-based; conditions: NCI-H460, 48 h
[38] = tested on: NCI-H460; test: Induction of cell cycle arrest in human NCI-H460 cells assessed as accumulation at sub G0/G1 phase at 10 uM after 12 hrs by flow cytometric analysis (reference value: 64.5%); format: functional
[39] = tested on: NCI-H460; test: Induction of apoptosis in human NCI-H460 cells assessed as viable cells at 10 uM incubated for 24 hrs by AnnexinV-FITC/propidium iodide staining based flow cytometry (reference value: 90.4%); format: functional; conditions: read-out: Activity
[40] = tested on: NCI-H460; test: Induction of apoptosis in human NCI-H460 cells assessed as increase in cleaved PARP measured upto 48 hrs by Western blot analysis; format: functional, cell-based; conditions: TDE = time-dependent effect
[41] = tested on: NCI-H460; test: Upregulation of TfR1 level in human NCI-H460 cells at 10 uM by Western blot analysis; format: functional, cell-based
[42] = tested on: NCI-H1299; test: Reversal of cell death in human NCI-H1299 cells at up to 40 uM measured after 24 hrs by in presence of FeCl3; format: functional, cell-based
[43] = tested on: NCI-H460; test: Induction of apoptosis in human NCI-H460 cells assessed as early apoptotic cells at 10 uM incubated for 48 hrs by AnnexinV-FITC/propidium iodide staining based flow cytometry (reference value: 0.74%); format: functional
[44] = tested on: NCI-H460; test: Induction of cell cycle arrest in human NCI-H460 cells assessed as accumulation at […] at 10 uM after 24 hrs by flow cytometric analysis (reference value: 25.7%); format: functional
[45] = tested on: NCI-H460; test: Induction of apoptosis in human NCI-H460 cells assessed as late apoptotic cells at 10 uM incubated for 48 hrs by AnnexinV-FITC/propidium iodide staining based flow cytometry (reference value: 7.54%); format: functional
[46] = tested on: NCI-H460; test: Induction of apoptosis in human NCI-H460 cells assessed as viable cells at 10 uM incubated for 36 hrs by AnnexinV-FITC/propidium iodide staining based flow cytometry (reference value: 90.4%); format: functional; conditions: read-out: Activity
[47] = tested on: NCI-H226; test: Cytotoxicity against human NCI-H226 cells assessed as cell viability rescue at 10 uM incubated for 24 hrs in presence of Fecl3 by CCK8 assay; format: functional, cell-based
[48] = tested on: NCI-H460; test: Induction of cell cycle arrest in human NCI-H460 cells assessed as accumulation at sub G0/G1 phase at 10 uM after 24 hrs by flow cytometric analysis (reference value: 64.5%); format: functional
[49] = tested on: NCI-H460; test: Induction of cell cycle arrest in human NCI-H460 cells assessed as increase in activated gammaH2AX expression at 10 uM after 24 hrs by Western blot analysis; format: functional, cell-based

CC[C@H]1Oc2ccn(O)c(=O)c2[C@H]2[C@H](C)C[C@H](C)C[C@]12C
Activity [1]: Tde | Activity [2]: Active | Activity [3]: 15.7% | Activity [4]: inactive | IC50 [5]: 4.94 µM | Activity [6]: Active | Activity [7]: Active | Activity [8]: 4.43% | Activity [9]: Dose-dependent effect | Activity [10]: 0.8% | viability at 10 µM [11]: 93.8% | Activity [12]: Active | Activity [13]: 3.92% | Activity [14]: 2.44% | Activity [15]: 1.7% | Activity [16]: Active | Activity [17]: Toxic | Activity [18]: 9.5% | Activity [19]: 25.9% | Activity [20]: 4.29% | Activity [21]: Active | viability at 10 µM [22]: 34.2% | Activity [23]: 2.2% | Activity [24]: 3.4% | Activity [25]: 1.01% | Activity [26]: 6.27% | Activity [27]: 2.93% | Activity [28]: 35.7% | Activity [29]: Active | Activity [30]: Tde | viability at 10 µM [31]: 86.3% | Activity [32]: Active | Activity [33]: Active | Activity [34]: inactive | Activity [35]: 0.75% | Activity [36]: Toxic | IC50 [37]: 1.76 µM | Activity [38]: 71.8% | viability at 10 µM [39]: 75.6% | Activity [40]: Tde | Activity [41]: Active | Activity [42]: Active | Activity [43]: 4.51% | Activity [44]: 26% | Activity [45]: 57.9% | viability at 10 µM [46]: 56.1% | Activity [47]: inactive | Activity [48]: 73.9% | Activity [49]: Active

O=C(O)c1ccc(-n2nc(-c3ccccc3O)nc2-c2ccccc2O)cc1 [DEFERASIROX]
IC50 [5]: 98.4 µM | IC50 [37]: 20.4 µM

CC(=O)O[C@H]1C(=O)[C@@]2(C)[C@H]([C@H](OC(=O)c3ccccc3)[C@]3(O)C[C@H](OC(=O)[C@H](O)[C@@H](NC(=O)c4ccccc4)c4ccccc4)C(C)=C1C3(C)C)[C@]1(OC(C)=O)CO[C@@H]1C[C@@H]2O
Activity [4]: inactive | Activity [34]: inactive | Activity [47]: inactive
